Data taken from PubChem BioAssay (NCI).
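How tested: cells in 96-well plates exposed to compound for 48 hours at five concentrations. GI50 = concentration required for 50% inhibition of growth. TGI: concentration producing complete growth inhibition.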

What was measured:
Experiment in all cases: inhibition of tumour cell growth, NCI panel, 48 h
SF-539 CNS = test system: SF-539 CNS
SW-620 colon = test system: SW-620 colon
NCI-H23 lung = test system: NCI-H23 lung
TK-10 renal = test system: TK-10 renal
SN12C renal = test system: SN12C renal
OVCAR-4 ovarian = test system: OVCAR-4 ovarian
OVCAR-8 ovarian = test system: OVCAR-8 ovarian
SR leukemia = test system: SR leukemia
NCI/ADR-RES ovarian = test system: NCI/ADR-RES ovarian
PC-3 prostate = test system: PC-3 prostate

COC(=O)C(C(=O)C(=O)Nc1nc2ccc(OC)cc2s1)c1cnc2ccccc2n1 (centres undefined)
TGI (SF-539 CNS): > 100 µM | TGI (SW-620 colon): > 100 µM | TGI (NCI-H23 lung): > 100 µM | TGI (TK-10 renal): > 100 µM | TGI (SN12C renal): > 100 µM | TGI (OVCAR-4 ovarian): > 100 µM

NNC(=O)C(=O)N/N=C1\CCCC1C(=O)CCC(=O)Nc1cccc(Cl)c1 (centres undefined)
TGI (SW-620 colon): > 100 µM | TGI (NCI-H23 lung): > 100 µM | TGI (OVCAR-8 ovarian): > 100 µM | TGI (TK-10 renal): > 100 µM | TGI (SN12C renal): > 100 µM | TGI (OVCAR-4 ovarian): > 100 µM

NC(=O)c1c(-c2ccccc2)c(-c2ccccc2)cc2c(=O)c3ccccc3[nH]c12
TGI (SF-539 CNS): 37.4 µM | TGI (SW-620 colon): > 100 µM | TGI (NCI-H23 lung): 43.5 µM | TGI (OVCAR-8 ovarian): 50 µM | TGI (TK-10 renal): 35.6 µM | TGI (SN12C renal): > 100 µM | TGI (OVCAR-4 ovarian): 30.4 µM

CCCOC(=O)C1C(c2ccc(OC)cc2)NC(c2ccc(OC)cc2)C(C(=O)OCCC)S1(=O)=O (centres undefined)
GI50 (SF-539 CNS): > 100 µM | TGI (SF-539 CNS): > 100 µM | GI50 (SW-620 colon): > 100 µM | TGI (SW-620 colon): > 100 µM | TGI (SR leukemia): > 100 µM | GI50 (NCI-H23 lung): > 100 µM | TGI (NCI-H23 lung): > 100 µM | GI50 (OVCAR-8 ovarian): > 100 µM | TGI (OVCAR-8 ovarian): > 100 µM | GI50 (TK-10 renal): > 100 µM | TGI (TK-10 renal): > 100 µM | GI50 (SN12C renal): > 100 µM | TGI (SN12C renal): > 100 µM | GI50 (OVCAR-4 ovarian): > 100 µM | TGI (OVCAR-4 ovarian): > 100 µM

CCCCCCCCCCCCNC(=S)OCCCC
TGI (SF-539 CNS): > 100 µM | TGI (SW-620 colon): > 100 µM | TGI (SR leukemia): > 100 µM | TGI (NCI-H23 lung): > 100 µM | TGI (OVCAR-8 ovarian): > 100 µM | TGI (TK-10 renal): > 100 µM | TGI (SN12C renal): > 100 µM | TGI (OVCAR-4 ovarian): > 100 µM

COc1c(O)ccc(/C=N/NC(=S)NCOCCOC(C)=O)c1OC
TGI (SF-539 CNS): > 100 µM | TGI (SW-620 colon): > 100 µM | TGI (NCI-H23 lung): > 100 µM | TGI (OVCAR-8 ovarian): > 100 µM | TGI (TK-10 renal): > 100 µM | TGI (SN12C renal): > 100 µM | TGI (OVCAR-4 ovarian): > 100 µM

CC1Nc2ccccc2NC1C=C(C#N)C#N (centres undefined)
TGI (SF-539 CNS): 26 µM | TGI (SW-620 colon): 25.1 µM | TGI (SR leukemia): 22.4 µM | TGI (NCI-H23 lung): 34.6 µM | TGI (OVCAR-8 ovarian): 23.1 µM | TGI (TK-10 renal): 34.2 µM | TGI (SN12C renal): 30.1 µM | TGI (OVCAR-4 ovarian): 31.6 µM

COc1ccc(C2=NC(CO)[C@H](c3ccccc3)O2)cc1OC (some centres undefined)
TGI (SF-539 CNS): > 100 µM | TGI (SW-620 colon): > 100 µM | TGI (OVCAR-8 ovarian): > 100 µM | TGI (SN12C renal): > 100 µM | TGI (OVCAR-4 ovarian): > 100 µM

Cc1nc2ccccc2c(/C=C/c2ccc(C(F)(F)F)cc2)c1C(=O)/C=C/c1ccccc1
GI50 (SF-539 CNS): 1.72 µM | TGI (SF-539 CNS): 3.13 µM | GI50 (OVCAR-8 ovarian): 1.64 µM | TGI (OVCAR-8 ovarian): 4.91 µM | GI50 (TK-10 renal): 2.05 µM | TGI (TK-10 renal): 3.63 µM | GI50 (NCI/ADR-RES ovarian): 1.97 µM | TGI (NCI/ADR-RES ovarian): 4.76 µM | GI50 (SN12C renal): 1.54 µM | TGI (SN12C renal): 3.01 µM | GI50 (PC-3 prostate): 1.34 µM | TGI (PC-3 prostate): 3.17 µM
